{"source": "patent US7223553B2", "about": "“Immunoassays for everolimus” (priority 2004, dated 2007)", "origin": "cited, not measured here", "key": {"[1]": {"conditions": "kidney transplantation; consistent with efficacy while minimizing adverse effects"}, "[2]": {"conditions": "heart transplant patients, first year post-transplant"}}, "note": "Read-outs that look alike come from different tables or passages of the source."}
{"substance": "40-O-(2-hydroxyethyl)-rapamycin [Everolimus]", "values": [{"measurement": "Therapeutic concentration", "setting": "[1]", "result": "3 to 15", "unit": "ng/mL"}, {"measurement": "Everolimus trough levels", "setting": "[2]; 1.5 mg/day", "result": "5.2 ± 3.8", "unit": "ng/mL"}, {"measurement": "Everolimus trough levels", "setting": "[2]; 3 mg/day", "result": "9.4 ± 6.3", "unit": "ng/mL"}]}
